The record followed here is ChEMBL document CHEMBL5465560, “Selectivity Literature for EUbOPEN Chemogenomic Library” (2024).

In experiment [1] the target is T1, Serine/threonine-protein kinase Nek9 (Homo sapiens) (UniProt Q8TD19).
T1 sequence (whole entry): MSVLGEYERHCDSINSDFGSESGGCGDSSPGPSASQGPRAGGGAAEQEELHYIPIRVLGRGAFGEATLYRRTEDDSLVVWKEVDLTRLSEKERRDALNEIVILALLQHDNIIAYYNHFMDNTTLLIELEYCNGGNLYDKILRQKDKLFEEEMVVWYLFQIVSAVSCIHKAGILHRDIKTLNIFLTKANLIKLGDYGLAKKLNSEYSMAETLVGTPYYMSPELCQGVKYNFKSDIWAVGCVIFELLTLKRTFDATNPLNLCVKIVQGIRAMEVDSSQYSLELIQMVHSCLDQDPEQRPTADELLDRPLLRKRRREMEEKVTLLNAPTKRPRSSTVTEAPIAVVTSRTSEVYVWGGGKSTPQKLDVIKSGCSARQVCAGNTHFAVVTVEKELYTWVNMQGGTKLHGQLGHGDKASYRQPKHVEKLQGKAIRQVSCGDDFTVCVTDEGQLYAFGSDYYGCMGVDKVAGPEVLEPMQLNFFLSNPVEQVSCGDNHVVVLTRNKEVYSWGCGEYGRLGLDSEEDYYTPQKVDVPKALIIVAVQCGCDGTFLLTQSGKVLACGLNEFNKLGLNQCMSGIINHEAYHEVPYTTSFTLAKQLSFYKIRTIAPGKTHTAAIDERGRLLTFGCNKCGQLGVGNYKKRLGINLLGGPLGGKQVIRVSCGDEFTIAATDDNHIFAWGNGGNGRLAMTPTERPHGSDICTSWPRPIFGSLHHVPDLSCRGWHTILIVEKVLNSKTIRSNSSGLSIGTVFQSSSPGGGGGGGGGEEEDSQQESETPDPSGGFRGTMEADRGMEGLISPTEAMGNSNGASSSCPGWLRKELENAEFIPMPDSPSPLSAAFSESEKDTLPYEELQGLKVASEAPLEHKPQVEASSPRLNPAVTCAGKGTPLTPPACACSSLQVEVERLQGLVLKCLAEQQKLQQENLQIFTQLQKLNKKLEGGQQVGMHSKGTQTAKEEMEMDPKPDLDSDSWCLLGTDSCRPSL
Briefly: Selectivity interaction (Kinase panel (KiNativ target engagement assay in Jurkat cells)) EUB0001635a NEK9. In kind it is cell-based. To be noted: at 1 µM.

The subject of experiment [2] is Epidermal growth factor receptor (Homo sapiens), P00533 [UNDEFINED MUTATION]. In words: Selectivity interaction (KinomeScan (DiscoverX)) EUB0000607a EGFR. The settings on record: at 10 µM.
Experiment [3] has as its target T2, Testis-specific serine/threonine-protein kinase 1 (Homo sapiens) (UniProt Q9BXA7).
T2 sequence (whole entry): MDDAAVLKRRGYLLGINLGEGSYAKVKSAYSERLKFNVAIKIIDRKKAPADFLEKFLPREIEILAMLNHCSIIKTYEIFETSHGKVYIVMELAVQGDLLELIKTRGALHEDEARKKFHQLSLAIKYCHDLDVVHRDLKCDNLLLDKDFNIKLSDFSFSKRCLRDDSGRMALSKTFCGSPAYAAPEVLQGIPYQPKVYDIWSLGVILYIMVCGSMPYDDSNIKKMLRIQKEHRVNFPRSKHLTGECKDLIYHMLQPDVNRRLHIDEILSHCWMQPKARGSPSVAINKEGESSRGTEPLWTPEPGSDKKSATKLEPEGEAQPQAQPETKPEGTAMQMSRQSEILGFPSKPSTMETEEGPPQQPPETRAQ
Briefly: Selectivity interaction (KinomeScan (DiscoverX)) EUB0000607a TSSK1A. To be noted: at 10 µM.

For experiment [4], the target named is Myosin light chain kinase 2, skeletal/cardiac muscle (Homo sapiens) (UniProt Q9H1R3). In words: Selectivity interaction (KinomeScan (DiscoverX)) EUB0000666a MYLK2. To be noted: at 10 µM.
Experiment [5] deals with Serine/threonine-protein kinase PAK 4 (Homo sapiens, UniProt O96013). Briefly: Selectivity interaction (KinomeScan (DiscoverX)) EUB0001079a PAK4. The settings on record: at 1 µM.
Experiment [6] deals with T3, Serine/threonine-protein kinase DCLK2 (Homo sapiens) (UniProt Q8N568).
T3 sequence (whole entry): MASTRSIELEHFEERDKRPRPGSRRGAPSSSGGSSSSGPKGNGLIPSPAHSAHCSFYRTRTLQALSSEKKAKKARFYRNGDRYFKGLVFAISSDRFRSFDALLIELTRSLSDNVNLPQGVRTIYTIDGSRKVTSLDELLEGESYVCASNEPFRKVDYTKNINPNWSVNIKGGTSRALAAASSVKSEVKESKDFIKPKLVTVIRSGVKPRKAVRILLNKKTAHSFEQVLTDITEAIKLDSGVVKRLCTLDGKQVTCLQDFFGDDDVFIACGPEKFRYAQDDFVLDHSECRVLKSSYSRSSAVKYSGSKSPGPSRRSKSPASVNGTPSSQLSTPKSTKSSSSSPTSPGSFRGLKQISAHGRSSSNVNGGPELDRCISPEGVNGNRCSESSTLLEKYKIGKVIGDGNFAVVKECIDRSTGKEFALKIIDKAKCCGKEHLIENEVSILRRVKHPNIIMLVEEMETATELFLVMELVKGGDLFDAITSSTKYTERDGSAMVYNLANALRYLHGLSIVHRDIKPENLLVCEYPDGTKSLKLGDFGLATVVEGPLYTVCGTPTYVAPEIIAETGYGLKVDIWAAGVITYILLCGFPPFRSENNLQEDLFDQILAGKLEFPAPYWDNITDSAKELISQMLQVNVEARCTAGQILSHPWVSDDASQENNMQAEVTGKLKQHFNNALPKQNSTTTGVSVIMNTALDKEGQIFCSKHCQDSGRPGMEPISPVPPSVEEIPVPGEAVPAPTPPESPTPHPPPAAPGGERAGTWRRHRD
Briefly: Selectivity interaction (KinomeScan (DiscoverX)) EUB0001619a DCLK2. The settings on record: at 1 µM.

Experiment [7] deals with Ribosomal protein S6 kinase alpha-4 (Homo sapiens) (UniProt O75676). Briefly: Selectivity interaction (KinomeScan (DiscoverX)) EUB0001619a RPS6KA4. The settings on record: at 1 µM.
Experiment [8] has as its target Aurora kinase B (Homo sapiens, UniProt Q96GD4). In words: Selectivity interaction (ActivX KiNativ screen (kinase selectivity in THP-1 cell lysates)) EUB0000639a AURKB. The format is subcellular. The settings on record: lysate, at 1 µM.
The target in experiment [9] is Tyrosine-protein kinase JAK2 (Homo sapiens, UniProt O60674). In words: Selectivity interaction (Kinase panel (Invitrogen)) EUB0000639a JAK2. The settings on record: at 200 nM.
Experiment [10] concerns the target Serine/threonine-protein kinase N1 (Homo sapiens, UniProt Q16512). Briefly: Selectivity interaction (ActivX KiNativ screen (kinase selectivity in THP-1 cell lysates)) EUB0000639a PKN1. The format is subcellular. To be noted: lysate, at 0.2 µM.
The target of experiment [11] is Serine/threonine-protein kinase 10 (Homo sapiens) (UniProt O94804). Briefly: Selectivity interaction (KinomeScan (DiscoverX)) EUB0000092b STK10. To be noted: at 10 µM.
In experiment [12] the target is Tyrosine-protein kinase SYK (Homo sapiens, UniProt P43405). Briefly: Selectivity interaction (Upstate Kinase Profiler service (Millipore)) EUB0000056c SYK. To be noted: at 1 µM.

Serine/threonine-protein kinase 10 (Homo sapiens), sequence (O94804 whole entry, looked up): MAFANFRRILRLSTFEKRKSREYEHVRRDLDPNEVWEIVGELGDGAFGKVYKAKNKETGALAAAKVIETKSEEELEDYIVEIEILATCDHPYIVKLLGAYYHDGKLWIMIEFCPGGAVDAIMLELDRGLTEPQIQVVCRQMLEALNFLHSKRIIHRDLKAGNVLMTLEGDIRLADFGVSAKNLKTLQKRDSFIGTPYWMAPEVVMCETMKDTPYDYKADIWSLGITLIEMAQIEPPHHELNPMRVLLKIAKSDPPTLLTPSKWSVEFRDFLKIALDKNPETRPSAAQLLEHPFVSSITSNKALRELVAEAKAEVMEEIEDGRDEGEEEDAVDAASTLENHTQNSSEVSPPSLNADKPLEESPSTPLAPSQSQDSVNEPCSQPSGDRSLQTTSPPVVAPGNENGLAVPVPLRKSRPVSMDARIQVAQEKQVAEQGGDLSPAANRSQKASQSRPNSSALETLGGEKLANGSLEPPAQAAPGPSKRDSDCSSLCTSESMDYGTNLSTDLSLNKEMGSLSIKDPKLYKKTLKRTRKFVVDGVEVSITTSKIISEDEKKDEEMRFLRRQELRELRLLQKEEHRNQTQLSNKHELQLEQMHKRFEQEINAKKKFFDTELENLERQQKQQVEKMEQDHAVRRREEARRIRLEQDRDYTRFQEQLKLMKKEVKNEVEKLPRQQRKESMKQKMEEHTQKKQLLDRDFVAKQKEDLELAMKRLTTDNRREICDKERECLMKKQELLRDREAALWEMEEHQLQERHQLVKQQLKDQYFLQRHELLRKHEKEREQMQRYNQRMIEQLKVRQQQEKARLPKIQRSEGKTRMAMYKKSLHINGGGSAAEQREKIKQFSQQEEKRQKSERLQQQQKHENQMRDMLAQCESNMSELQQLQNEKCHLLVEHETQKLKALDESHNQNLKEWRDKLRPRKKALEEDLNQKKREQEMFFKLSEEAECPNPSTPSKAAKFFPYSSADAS
Epidermal growth factor receptor (Homo sapiens), P00533 [UNDEFINED MUTATION], sequence (P00533 whole entry, looked up, change not shown): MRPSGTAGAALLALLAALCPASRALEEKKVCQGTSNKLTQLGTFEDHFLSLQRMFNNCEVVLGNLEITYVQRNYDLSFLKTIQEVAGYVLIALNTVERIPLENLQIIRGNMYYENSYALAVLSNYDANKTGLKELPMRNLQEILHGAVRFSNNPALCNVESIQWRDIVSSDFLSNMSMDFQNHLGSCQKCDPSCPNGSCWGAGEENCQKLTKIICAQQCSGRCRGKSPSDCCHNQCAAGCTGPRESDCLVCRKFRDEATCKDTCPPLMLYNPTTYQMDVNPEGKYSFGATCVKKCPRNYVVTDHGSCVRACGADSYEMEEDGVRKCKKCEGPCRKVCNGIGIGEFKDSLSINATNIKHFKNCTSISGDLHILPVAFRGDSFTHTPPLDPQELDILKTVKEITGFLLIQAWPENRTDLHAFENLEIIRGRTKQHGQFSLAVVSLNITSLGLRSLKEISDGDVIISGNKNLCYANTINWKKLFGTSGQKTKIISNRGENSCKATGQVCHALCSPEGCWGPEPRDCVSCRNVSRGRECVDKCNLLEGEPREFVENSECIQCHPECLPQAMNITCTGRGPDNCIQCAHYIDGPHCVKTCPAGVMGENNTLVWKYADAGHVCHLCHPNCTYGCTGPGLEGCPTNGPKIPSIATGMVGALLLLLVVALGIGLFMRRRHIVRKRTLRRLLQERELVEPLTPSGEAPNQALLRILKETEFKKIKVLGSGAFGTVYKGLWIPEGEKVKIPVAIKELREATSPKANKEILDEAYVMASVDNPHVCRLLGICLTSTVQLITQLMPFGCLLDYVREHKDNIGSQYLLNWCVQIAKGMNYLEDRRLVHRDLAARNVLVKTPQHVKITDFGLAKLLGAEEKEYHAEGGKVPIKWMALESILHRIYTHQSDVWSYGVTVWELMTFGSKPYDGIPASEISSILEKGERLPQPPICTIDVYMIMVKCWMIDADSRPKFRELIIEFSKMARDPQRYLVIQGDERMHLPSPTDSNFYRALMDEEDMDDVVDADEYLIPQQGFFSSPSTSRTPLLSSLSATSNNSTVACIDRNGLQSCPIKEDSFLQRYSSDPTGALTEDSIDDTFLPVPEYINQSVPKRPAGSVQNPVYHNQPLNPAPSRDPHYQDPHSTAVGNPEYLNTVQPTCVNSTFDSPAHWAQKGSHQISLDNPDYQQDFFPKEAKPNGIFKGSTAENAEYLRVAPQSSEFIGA
Serine/threonine-protein kinase PAK 4, sequence (O96013 whole entry, looked up): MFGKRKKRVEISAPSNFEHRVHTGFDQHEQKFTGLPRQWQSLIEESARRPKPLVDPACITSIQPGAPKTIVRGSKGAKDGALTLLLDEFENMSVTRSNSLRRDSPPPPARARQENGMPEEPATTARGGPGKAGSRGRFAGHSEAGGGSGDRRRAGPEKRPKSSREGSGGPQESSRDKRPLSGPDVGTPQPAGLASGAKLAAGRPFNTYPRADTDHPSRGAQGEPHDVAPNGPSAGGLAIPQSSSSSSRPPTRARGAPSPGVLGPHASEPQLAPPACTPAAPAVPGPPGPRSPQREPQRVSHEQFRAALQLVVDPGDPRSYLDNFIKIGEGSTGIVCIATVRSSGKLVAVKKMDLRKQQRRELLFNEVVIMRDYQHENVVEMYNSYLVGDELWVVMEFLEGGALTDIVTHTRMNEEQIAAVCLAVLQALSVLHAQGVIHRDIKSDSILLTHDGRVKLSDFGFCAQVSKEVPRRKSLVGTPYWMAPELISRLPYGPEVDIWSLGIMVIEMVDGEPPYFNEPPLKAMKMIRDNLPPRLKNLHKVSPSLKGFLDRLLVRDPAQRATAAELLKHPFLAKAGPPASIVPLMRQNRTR
Tyrosine-protein kinase JAK2, sequence (O60674 whole entry): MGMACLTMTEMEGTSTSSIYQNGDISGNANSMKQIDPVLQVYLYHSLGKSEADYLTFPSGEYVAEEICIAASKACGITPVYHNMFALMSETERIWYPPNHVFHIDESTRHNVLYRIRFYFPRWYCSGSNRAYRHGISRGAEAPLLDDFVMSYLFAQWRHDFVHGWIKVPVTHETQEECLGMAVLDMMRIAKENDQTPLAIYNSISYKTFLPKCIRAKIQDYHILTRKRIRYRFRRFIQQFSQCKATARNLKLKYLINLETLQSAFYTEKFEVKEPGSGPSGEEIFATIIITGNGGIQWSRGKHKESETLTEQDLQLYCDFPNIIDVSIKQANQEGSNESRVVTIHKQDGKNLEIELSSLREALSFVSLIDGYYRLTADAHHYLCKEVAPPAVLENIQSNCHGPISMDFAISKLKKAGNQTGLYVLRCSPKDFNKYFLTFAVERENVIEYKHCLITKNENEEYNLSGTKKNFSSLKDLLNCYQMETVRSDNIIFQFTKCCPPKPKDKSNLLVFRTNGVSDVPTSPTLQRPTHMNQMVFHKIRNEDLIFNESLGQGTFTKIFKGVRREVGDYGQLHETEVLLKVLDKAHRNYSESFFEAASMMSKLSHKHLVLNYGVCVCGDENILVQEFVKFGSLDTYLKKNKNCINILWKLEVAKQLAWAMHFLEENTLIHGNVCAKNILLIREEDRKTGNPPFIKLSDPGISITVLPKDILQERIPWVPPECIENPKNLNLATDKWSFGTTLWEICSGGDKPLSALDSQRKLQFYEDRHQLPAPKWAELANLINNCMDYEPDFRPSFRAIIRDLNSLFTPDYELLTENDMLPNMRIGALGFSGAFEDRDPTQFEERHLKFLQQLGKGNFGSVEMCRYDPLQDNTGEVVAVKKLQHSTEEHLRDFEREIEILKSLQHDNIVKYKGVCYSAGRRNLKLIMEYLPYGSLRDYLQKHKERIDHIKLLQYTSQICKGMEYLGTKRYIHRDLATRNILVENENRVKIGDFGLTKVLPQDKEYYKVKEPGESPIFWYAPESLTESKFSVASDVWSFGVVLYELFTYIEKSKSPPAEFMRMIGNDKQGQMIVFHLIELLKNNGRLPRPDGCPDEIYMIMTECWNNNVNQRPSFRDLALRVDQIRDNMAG
Serine/threonine-protein kinase N1, sequence (Q16512 2-942 limits assumed): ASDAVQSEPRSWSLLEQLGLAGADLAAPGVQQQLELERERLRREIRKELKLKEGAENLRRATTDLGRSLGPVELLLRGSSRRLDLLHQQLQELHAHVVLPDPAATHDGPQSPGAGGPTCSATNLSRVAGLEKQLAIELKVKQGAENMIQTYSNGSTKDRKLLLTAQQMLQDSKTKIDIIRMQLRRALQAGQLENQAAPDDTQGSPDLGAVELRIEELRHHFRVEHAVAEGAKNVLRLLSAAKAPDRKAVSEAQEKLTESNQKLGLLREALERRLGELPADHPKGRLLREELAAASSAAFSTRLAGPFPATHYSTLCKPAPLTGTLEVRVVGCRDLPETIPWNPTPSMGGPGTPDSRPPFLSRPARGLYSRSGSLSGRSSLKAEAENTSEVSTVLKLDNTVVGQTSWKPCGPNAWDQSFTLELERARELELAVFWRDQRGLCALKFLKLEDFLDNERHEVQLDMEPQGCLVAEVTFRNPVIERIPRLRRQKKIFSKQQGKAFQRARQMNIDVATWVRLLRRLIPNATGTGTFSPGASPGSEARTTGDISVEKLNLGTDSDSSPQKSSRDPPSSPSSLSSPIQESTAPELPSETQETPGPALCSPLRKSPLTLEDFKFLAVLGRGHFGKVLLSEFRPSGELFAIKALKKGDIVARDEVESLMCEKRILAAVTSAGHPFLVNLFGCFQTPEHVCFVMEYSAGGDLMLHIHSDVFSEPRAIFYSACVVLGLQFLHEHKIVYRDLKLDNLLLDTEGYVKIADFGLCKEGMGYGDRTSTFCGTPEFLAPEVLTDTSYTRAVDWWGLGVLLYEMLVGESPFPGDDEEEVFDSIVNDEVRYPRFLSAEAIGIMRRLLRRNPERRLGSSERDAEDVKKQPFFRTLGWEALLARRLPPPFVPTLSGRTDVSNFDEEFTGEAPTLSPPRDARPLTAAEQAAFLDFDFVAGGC

Consider `C=CC(=O)Nc1ccc(C(=O)Nc2[nH]nc3c2CN(C(=O)N[C@H](CN(C)C)c2ccccc2)C3(C)C)cc1`, for which the % of engagement in experiment [1] (Selectivity number of off-targets 0.0, Selectivity number of targets 233.0, Source Knowledge https://www.sciencedirect.com/science/article/pii/S2451945619300674?via%3Dihub) was -1.8%; in [1], -1.7%. Consider `CNC(=O)Nc1ccc(-c2nc(N3CC4CCC(C3)O4)c3cnn(C4CCC5(CC4)OCCO5)c3n2)cc1`, for which the results for the % of control in [2] and in experiment [3] were 62% and 100%, respectively. With `O=C(NOC[C@H](O)CO)c1ccc(F)c(F)c1Nc1ccc(I)cc1F`, the % of control in experiment [4] came to 100%.

In turn, `Nc1cnc(N2CCc3cc(S(=O)(=O)Nc4c(F)cc(Cl)cc4F)cc(N4CCCC4=O)c32)nc1` [TP-020n] registered a % of control in [5] of 89%.

As for `N#Cc1cccc(-c2c[nH]c3ncnc(N4CCOCC4)c23)c1`, the % of control in experiment [6] turned out to be 100%; in experiment [7], 71%. On to `CC[C@@H]1[C@H](F)C(=O)N[C@@H]1COc1nccc2cc(C(N)=O)c(OC)cc12` [ZIMLOVISERTIB], for which the % of inhibition in experiment [8] was 20%; in experiment [9] it was 12.5%; in [10], 5.5%. `CCC(=O)N1CCN(c2ccc(-n3c(=O)ccc4cnc5ccc(-c6cnc7ccccc7c6)cc5c43)cc2C(F)(F)F)CC1` showed a % of control in experiment [11] of 79%. In the case of `Cc1ccc(-c2ccc3c(ccc4sc5c(c43)NC[C@@H](C)NC5=O)n2)cn1`, in [12], the % of inhibition was -7%.
